Measured values published in ChEMBL document CHEMBL1158289, “Bioactive amides from Glycosmis species” (J Nat Prod, 1996).
In brackets after ≈: the same amount, converted by molar mass.

Key:
[1] = system: Cladosporium herbarum; test: Antifungal activity against Cladosporium herbarum assessed as inhibition of spore germination after 36 hrs by germtube inhibition test; type: functional; conditions: read-out: ED50 (the source's name)
[2] = system: Spodoptera littoralis; test: Contact toxicity in Spodoptera littoralis neonatal larvae assessed as mortality after 48 hrs; type: organism-based; conditions: in vivo
[3] = system: Spodoptera littoralis; test: Toxicity in Spodoptera littoralis neonatal larvae assessed as growth inhibition after 5 days; type: organism-based
[4] = system: Spodoptera littoralis; test: Toxicity in Spodoptera littoralis neonatal larvae assessed as survival rate after 5 days; type: organism-based; conditions: in vivo, 120 h

Row | SMILES | EC50 [1] | LC50 [2] | EC50 [3] | LC50 [4]
1 | CS/C=C/C(=O)N(C)CCc1ccccc1 | 17.6 µg/mL (≈ 74.8 µM) | 0.03 umol/dm'2 | 0.47 µmol/g | 4.24 µmol/g
2 | CSC(=O)N(C)/C=C/c1ccccc1 [DEHYDRONIRANIN A] | 100 µg/mL (≈ 482 µM) | 0.18 umol/dm'2 | 0.41 µmol/g | 1.64 µmol/g
3 | CSC(=O)N(C)/C=C\c1ccccc1 [DEHYDRONIRANIN B] | 8.4 µg/mL (≈ 40.5 µM) | 0.02 umol/dm'2 | 0.37 µmol/g | 0.96 µmol/g
4 | CS/C=C/C(=O)N(C)/C=C/c1ccccc1 [METHYLILLUKUMBIN A] | 5.5 µg/mL (≈ 23.6 µM) | > 6.5 umol/dm'2 | 0.94 µmol/g | > 5 µmol/g
5 | CSC(=O)N(C)CCc1ccccc1 [NIRANIN] | 28 µg/mL (≈ 134 µM) | 0.03 umol/dm'2 | 0.25 µmol/g | 0.81 µmol/g
6 | CNC(=O)/C=C/SC [PENANGIN] | > 200 µg/mL | 2.84 umol/dm'2 | 0.84 µmol/g | > 10 µmol/g
7 | CSC(=O)N(C)C(=O)Cc1ccccc1 [RITIGALIN] | 156 µg/mL (≈ 699 µM) | 0.05 umol/dm'2 | 0.43 µmol/g | 1.34 µmol/g
